One data set has as its system α1 -adrenergic. Briefly: α1 -adrenergic blockade: inhibition of phenylephrine-induced increases in diastolic blood pressure in the anesthetized dog. Format: in vivo. The note with it: for Percent Inhibition of Phenylephrin-Induced Pressor Responses: dog. As to the method:
The α1 -adrenergic blockade: inhibition of phenylephrine-inducedincreases in diastolic blood pressure in the anesthetized dog was determined according to the method set forth in the following literature reference:
Arunlakshana, O, and Schild, H. O. (1959). Some Quantitative Uses of Drug Antagonists. Br. J. Pharmac. Chemother., 14:48-58.
The procedure is as follows:
Dogs are anesthetized and bilaterally vagotomized. A femoral artery and vein are cannulated for detection of diastolic blood pressure and drug administration, respectively. Percent inhibition of alpha adrenergic receptor antagonism is quantitiated by determining the dose-response (increase in diastolic pressure) relationship of phenylephrine before and after various doses of the antagonist. Statistical analysis of percent inhibition is calculated by use of the variance component estimation test. In addition, the Dose Ratio (DR20) may be calculated for potency comparisons and is defined as the dose of antagonist required to produce an agonist dose ratio of 20.

For data set [1], the system named is spontaneously hypertensive rats (SHR). Briefly: antihypertensive evaluation, systolic blood pressure, single oral dose, conscious SHR (tail cuff). Format: in vivo. As to the method:
(§1) The percent recovery is calculated by dividing the maximum decrease in mean arterial blood pressure (mm Hg) caused by tilt into the amount of rise in blood pressure at 15 seconds after initiating tilt. The antihypertensive as well as teh alpha1 -adrenergic blocking properties of the novel quinazolinedione piperazines were evaluated and set forth in Table 2.
The antihypertensive evaluation followed the following procedure:
Adult male spontaneously hypertensive rats (SHR) were placed in restrainers in a chamber warmed to 32° C. A standard indirect method employing a pneumatic pulse transducer and inflatable tail cuff was used to measure systolic blood pressure (SBP) in the conscious state. After baseline SBP were recorded, groups of 4 SHR received a single oral dose of drug or vehicle (0.5% methylcellulose) administered with a gavage tube. SBP's were obtained at 1/2, 1, 2, 3 and 4 hours post treatment. Changes in SBP's were statistically compared to the vehicle effect using Students t test, at p ε0.05.

The subject of another data set is histamine. Kind of data set: autonomic tests: histamine blood pressure responses. Format: in vivo. Particulars: dogs.
The subject of data set [2] is spontaneously hypertensive rats. Briefly: bioavailability comparison, MABP in conscious cannulated SHR (i.v. and oral). Particulars: for ED10: Rattus norvegicus. The data set is classed as in vivo, spontaneously hypertensive rats (SHR). As to the method: (§2) The bioavailability comparison was determined in conscious direct cannulated spontaneously hypertensive rats. Briefly, the SHRs were anesthetized with ether and a carotid arterial catheter was inserted for measurement of arterial blood pressure while a jugular catheter was inserted for i.v. drug administration. For oral dosing, a catheter was also passed via the esophagus into the stomach. All catheters were exteriorized at the nape of the neck and animals were placed in restrainers and allowed to recover from surgery. Blood pressure was continuously recorded. Drugs were dissolved in 5% dextrose in water and administered as a bolus at time zero. Bioavailability results are presented in Table 3. | (a) I.V. bolus dose that lowers MABP in conscious SHR by 10%. | (b) Oral gavage dose that lowers MABP in conscious cannulated SHR by 10%. | (c) Bioavailability ratio with small numbers (close to unity) indicating | good bioavailability.

Assay in data set [3]: as above
Format: in vivo, spontaneously hypertensive rats (SHR). Particulars: rat, in vivo; SHR; small numbers (close to unity) indicate good bioavailability; read-out: Ratio P.O./I.V. (bioavailability ratio). As for the experimental part: as §2

In data set [4] the test system is tilt reflex recovery response. More on the design: species or system mongrel dogs. Particulars: dog, in vivo. As to the method:
as §1, with “The tilt reflex recovery response is determined as follows: Adult mongrel dogs of either sex are anesthetized with pentobarbital sodium, secured to a tilt table and surgically prepared for measurement of blood pressure and heart rate. Animals are tilted and the percent recovery of the tilt response in the blood pressure is quantitated. The percent” for “The percent”

A further data set concerns acetylcholine. Kind of data set: autonomic tests: acetylcholine blood pressure responses. Format: in vivo. Particulars: dogs.
The mark [5] stands for this setting: iv, conscious SHR, I.V. bolus, read-out: I.V. E.D.-10% (I.V. bolus dose that lowers MABP by 10%).
Where [6] appears, read: conscious cannulated SHR, oral gavage, read-out: P.O. E.D.-10% (oral gavage dose that lowers MABP by 10%).

Results on six compounds are retold here after patent US4711883A, “Substituted 3-(4-phenyl-1-piperazinyl)alkylquinazolin-2,4-(1H,3H) diones, methods of preparation, compositions and method of use” (Ortho Pharmaceutical Corporation, priority 1985, dated 1987).

The structures appear in SMILES notation. Where a name gives a salt, the structure may show the parent alone. Read-outs that look alike come from different tables or passages of the source.

`COc1ccccc1N1CCN(CCn2c(=O)[nH]c3c(Cl)cc(OC)c(OC)c3c2=O)CC1` [B, 8-chloro-3-{2-[4-(2-methoxyphenyl)-1-piperazinyl]ethyl}-5,6-dimethoxyquinazolin-2,4-(1H,3H)-dione]: the entries for the “Percent Inhibition of Phenylephrin-Induced Pressor Responses” value (“Percent Inhibition” for short) in the data set with α1 -adrenergic (0.03 mg/kg IV) and in the data set on α1 -adrenergic (0.2 mg/kg IV) were 60% and 93%, respectively. In addition, the “Peak Change in Systolic Blood Pressure” value in data set [1] (10 mg/kg PO) is -72 mm Hg.

As for `COc1cc2[nH]c(=O)n(CCN3CCN(c4ccccc4OC)CC3)c(=O)c2cc1OC` [C, 6,7-dimethoxy-3-{2-[4-(2-methoxyphenyl)-1-piperazinyl]ethyl}-quinazolin-2,4-(1H,3H)dione], the “Percent Inhibition” value in the data set on α1 -adrenergic (0.1 mg/kg IV) is 95%. In addition, the “Peak Change in Systolic Blood Pressure” value in data set [1] (0.5 mg/kg PO) was -69 mm Hg.

For `COc1ccccc1N1CCN(CCn2c(=O)[nH]c3ccc(OC)c(OC)c3c2=O)CC1` [Compound A, 3-{2-[4-(2-Methoxyphenyl)-1-piperazinyl]ethyl}-5,6-dimethoxyquinazolin-2,4-(1H,3H)dione monohydrobromide], the “DR20 (dose of antagonist required to produce an agonist dose ratio of 20)” value with α1 -adrenergic (anesthetized dog, IV, phenylephrine) is given as 0.0203 mg/kg. The “Percent Inhibition” value in the data set with α1 -adrenergic (0.0203 (DR20) mg/kg IV) is listed as 100%. The “antihistaminic effect (inhibition of histamine blood pressure responses)” value with histamine is “almost no antihistaminic or anticholinergic effect”. The “Peak Change in Systolic Blood Pressure” value in data set [1] (0.1 mg/kg PO) is -58 mm Hg; in data set [1] (0.5 mg/kg PO), -85 mm Hg. Also, the “oral hypotensive / antihypertensive activity (in words)” value in data set [1] (oral) is on record as “orally effective antihypertensive profile”. The ED10 in data set [2] (setting [5]) was determined as 1.8 mg/kg; in data set [2] (setting [6]), 70 mg/kg. Further, the “bioavailability profile (in words)” value in data set [2] (oral/i.v. ratios compared with prior art) is reported as “unexpected superior bioavailability”. Also, the selectivity ratio in data set [3] amounted to 38.9. In addition, in data set [4], the “inhibition of the tilt reflex recovery response” value is on record as 37%±12. Moreover, the “anticholinergic effect (inhibition of acetylcholine blood pressure responses)” value in the data set on acetylcholine is given as “almost no antihistaminic or anticholinergic effect”.

As for `COc1ccccc1N1CCN(CCn2c(=O)[nH]c3ccccc3c2=O)CC1` [Compound Z, reference compound], the “Percent Inhibition” value with α1 -adrenergic (0.010 mg/kg IV) is 100%. Besides, the “antihistaminic effect (inhibition of histamine blood pressure responses)” value in the data set with histamine is “inhibits histamine and acetylcholine blood pressure responses”. For the same compound, the “Peak Change in Systolic Blood Pressure” value in data set [1] (0.1 mg/kg PO) is reported as -40 mm Hg. Also, the ED10 is 0.5 mg/kg in data set [2] (setting [5]) and 370 mg/kg in data set [2] (setting [6]). In addition, the selectivity ratio in data set [3] was 740. Also, the “inhibition of the tilt reflex recovery response” value in data set [4] is reported as 83%±8. Moreover, in the data set on acetylcholine, the “anticholinergic effect (inhibition of acetylcholine blood pressure responses)” value was “inhibits histamine and acetylcholine blood pressure responses”.

As to `Br.COc1ccccc1N1CCN(CCn2c(=O)[nH]c3ccc(O)c(O)c3c2=O)CC1.O` [D, 5,6-Dihydroxy-3-{2-[4-(2-methoxyphenyl)-1-piperazinyl]ethyl}-quinazolin-2,4(1H,3H)-dione monohydrobromide monohydrate], in the data set with α1 -adrenergic (0.0303 mg/kg IV), the “Percent Inhibition” value turned out to be 89%. In addition, the entries for the “Peak Change in Systolic Blood Pressure” value in data set [1] (0.05 mg/kg PO) and in data set [1] (0.1 mg/kg PO) were -58 mm Hg and -60 mm Hg, respectively.

As to `COc1ccc(N2CCN(CCn3c(=O)[nH]c4ccc(OC)c(OC)c4c3=O)CC2)cc1` [E], in the data set on α1 -adrenergic (1.0 mg/kg IV), the “Percent Inhibition” value is 80%. In addition, the “Peak Change in Systolic Blood Pressure” value in data set [1] (20 mg/kg PO) is listed as -50 mm Hg.
